Measured values: patent publication US7163940B2, “Pyrazolopyridinyl pyrimidine therapeutic compounds” (SmithKline Beecham Corporation, priority 2000, dated 2007)

test system: HSV-1; assay: HSV-1 replication in infected Vero 76 cells, viral DNA hybridization capture assay; format: cell-based; settings: Human alphaherpesvirus 1, Vero 76, HSV-1, Vero 76 cells, MOI=0.001, 40–48 hours incubation
Procedure: Vero 76 cells were maintained in MEM with Earle's salts, L-glutamine, 8% FBS (Hyclone, A-1111-L) and 100 units/mL Penicillin-100 μg/mL Streptomycin. For assay conditions, FBS was reduced to 2%. Cells are seeded into 96-well tissue culture plates at a density of 5×10^4 cells/well after being incubated for 45 min at 37° C. in the presence of HSV-1 or HSV-2 (MOI=0.001). Test compounds are added to the wells and the plates are incubated at 37° C. for 40–48 hours. Cell lysates are prepared as follows: media was removed and replaced with 150 μL/well 0.2 N NaOH with 1% Igepal CA 630 or NP-40. Plates were incubated up to 14 days at room temperature in a humidified chamber to prevent evaporation. • (b) Preparation of Detection DNA.
For the detection probe, a gel-purified, digoxigenin-labeled, […] PCR fragment of the HSV UL-15 sequence was utilized. PCR conditions included 0.5 μM primers, 180 μM dTP, 20 μM dUTP-digoxigenin (Boehringer Mannheim 1558706), 200 μM each of dATP, dCTP, and dGTP, 1×PCR Buffer II (Perkin Elmer), 2.5 mM MgCl2, 0.025 units/μL of AmpliTaq Gold polymerase (Perkin Elmer), and 5 ng of gel-purified HSV DNA per 100 μL. Extension conditions were 10 min at 95° C., followed by 30 cycles of 95° C. for 1 min, 55° C. for 30 sec, and 72° C. for 2 min. The amplification was completed with a 10-min incubation at 72° C. Primers were selected to amplify a 728 bp probe spanning a section of the HSV1 UL15 open reading frame (nucleotides 249–977). Single-stranded transcripts were purified with Promega M13 Wizard kits. The final product was mixed 1:1 with a mixture of 6 M GuSCN, 100 mM EDTA and 200 μg/mL herring sperm DNA and stored at 4° C. • (c) Preparation of Capture Plates.
The capture DNA plasmid (HSV UL13 region in pUC) was linearized by cutting with Xba I, denatured for 15 min at 95° C. and diluted immediately into Reacti-Bind DNA Coating Solution (Pierce, 17250, diluted 1:1 with TE buffer, pH 8) at 1 ng/μL 75 μL/well were added to Corning (#3922 or 9690) white 96-well plates and incubated at room temperature for at least 4 hrs before washing twice with 300 μL/well 0.2×SSC/0.05% Tween-20 (SSC/T buffer). The plates were then incubated overnight at room temperature with 150 μL/well 0.2 N NaOH, 1% IGEPAL and 10 μg/mL herring sperm DNA. • (d) Hybridization.
Twenty-seven (27) μL of cell lysate was combined with 45 μL of hybridization solution (final concentration: 3M GuSCN, 50 mM EDTA, 100 μg/ml salmon sperm DNA, 5× Denhardt's solution, 0.25×APE, and 5 ng of the digoxigenin-labeled detection probe). APE is 1.5 M NH4-acetate, 0.15 M ammonium phosphate, and 5 mM EDTA adjusted to pH 6.0. Mineral oil (50 μL) was added to prevent evaporation. The hybridization plates were incubated at 95° C. for 10 minutes to denature the DNA, then incubated at 42° C. overnight. The wells were washed 6× with 300 μL/well SSC/T buffer then incubated with 75 μL/well anti-digoxigenin-HRP-conjugated antibody (Boehringer Mannheim 1207733, 1:5000 in TE) for 30 min at room temperature. The wells were washed 6× with 300 μL/well with PBS/0.05% Tween-20 before 75 μL/well SuperSignal LBA substrate (Pierce) was added. The plates were incubated at room temperature for 30 minutes and chemiluminescence was measured in a Wallac Victor reader. • e) Results.
The following results were obtained for HSV-1.

SMILES	IC50
Cc1cc(-c2c(-c3ccc(F)cc3)nn3c(NCC(=O)O)cccc23)nc(NC2CCCC2)n1 [Example 25, {[3-[2-(Cyclopentylamino)-6-methyl-4-pyrimidinyl]-2-(4-fluorophenyl)pyrazolo[1,5-α]pyridin-7-yl]amino}acetic acid]	15 µM
CCCCNc1cccc2c(-c3ccnc(NC4CC4)n3)c(-c3ccc(F)cc3)nn12 [Example 4, N-Butyl-3-[2-(cyclopropylamino)-4-pyrimidinyl]-2-(4-fluorophenyl)-pyrazolo[1,5-α]pyridin-7-amine]	0.6 µM
Fc1ccc(-c2nn3c(Cl)cccc3c2-c2ccnc(C3CC3)n2)cc1 [Example 76, 7-Chloro-3-(2-cyclopropylpyrimidin-4-yl)-2-(4-fluorophenyl)pyrazolo[1,5-α]pyridine]	> 20 µM
Fc1ccc(-c2nn3c(NC4CCCC4)cccc3c2-c2ccnc(NC3CCCC3)c2)cc1 [Example 29, N-Cyclopentyl-3-[2-(cyclopentylamino)-4-pyridinyl]-2-(4-fluorophenyl)pyrazolo[1,5-α]pyridin-7-amine]	0.3 µM
CCCCNc1nccc(-c2c(-c3ccc(F)cc3)nn3c(N4CCOCC4)cccc23)n1 [Example 36, N-Butyl-4-[2-(4-fluorophenyl)-7-(4-morpholinyl)pyrazolo[1,5-α]pyridin-3-yl]-2-pyrimidinamine]	0.8 µM
CCCCNc1nccc(-c2c(-c3ccc(F)cc3)nn3c(NCCCC)cccc23)n1 [Example 3, N-Butyl-3-[2-(butylamino)-4-pyrimidinyl]-2-(4-fluorophenyl)pyrazolo-[1,5-α]pyridin-7-amine]	0.5 µM
CCCCNc1cccc2c(-c3ccnc(N4CCOCC4)n3)c(-c3ccc(F)cc3)nn12 [Example 40, N-Butyl-2-(4-fluorophenyl)-3-[2-(4-morpholinyl)-4-pyrimidinyl]pyrazolo[1,5-α]pyridin-7-amine]	15 µM
Fc1ccc(-c2nn3c(NC4CCCC4)cccc3c2-c2cc(NC3CCCC3)ncn2)cc1 [Example 84, N-cyclopentyl-3-[6-(cyclopentylamino)pyrimidin-4-yl]-2-(4-fluorophenyl)pyrazolo[1,5-α]pyridin-7-amine]	1.3 µM
CCCCNc1cccc2c(-c3ccnc(N4CCN(CCO)CC4)n3)c(-c3ccc(F)cc3)nn12 [Example 41, 2-(4-{4-[7-(Butylamino)-2-(4-fluorophenyl)pyrazolo[1,5-α]pyridin-3-yl]-2-pyrimidinyl}-1-piperazinyl)ethanol]	6 µM
CCCCNc1cccc2c(-c3ccnc(OCC(F)(F)F)n3)c(-c3ccc(F)cc3)nn12 [Example 68, N-Butyl-2-(4-fluorophenyl)-3-[2-(2,2,2-trifluoroethoxy)pyrimidin-4-yl]pyrazolo[1,5-α]pyridin-7-amine]	> 20 µM
COc1ccc(Nc2cccc3c(-c4ccnc(NC5CCCC5)n4)c(-c4ccc(F)cc4)nn23)cc1 [Example 23, 3-[2-(Cyclopentylamino)-4-pyrimidinyl]-2-(4-fluorophenyl)-N-(4-methoxyphenyl)pyrazo[1,5-α]pyridin-7-amine]	1 µM
CCCCNc1nccc(-c2c(-c3ccc(F)cc3)nn3c(N4CCN(C)CC4)cccc23)n1 [Example 35, N-Butyl-4-[2-(4-fluorophenyl)-7-(4-methyl-1-piperazinyl)pyrazolo[1,5-α]pyridin-3-yl]-2-pyrimidinamine]	0.9 µM
Cc1cc(-c2c(-c3ccc(F)cc3)nn3c(Cl)cccc23)nc(NC2CCCC2)n1 [Example 7, 4-[7-Chloro-2-(4-fluorophenyl)pyrazolo[1,5-α]pyridin-3-yl]-N-cyclopentyl-6-methyl-2-pyrimidinamine]	3.9 µM
Fc1ccc(-c2nn3c(NC4CCCC4)cccc3c2-c2cc(COC3CCCCO3)nc(NC3CCCC3)n2)cc1 (stereo not drawn) [Example 16, N-Cyclopentyl-3-{2-(cyclopentylamino)-6-[(tetrahydro-2H-pyran-2-yloxy)methyl]-4-pyrimidinyl}-2-(4-fluorophenyl)pyrazolo[1,5-α]pyridin-7-amine]	40 µM
Cc1cc(-c2c(-c3ccc(F)cc3)nn3c(NC4CCCC4)cccc23)nc(N(C)C)n1 [Example 81, N-Cyclopentyl-3-[2-(dimethylamino)-6-methylpyrimidin-4-yl]-2-(4-fluorophenyl)pyrazolo[1,5-α]pyridin-7-amine]	> 20 µM
Fc1ccc(-c2nn3c(NC4CCCC4)cccc3c2-c2ccnc(NCCCN3CCOCC3)n2)cc1 [Example 13, N-Cyclopentyl-2-(4-fluorophenyl)-3-(2-{[3-(4-morpholinyl)propyl]-amino}-4-pyrimidinyl)pyrazolo[1,5-α]pyridin-7-amine]	6 µM
CN(C)Cc1cc(-c2c(-c3ccc(F)cc3)nn3c(NC4CCCC4)cccc23)nc(NC2CCCC2)n1 [Example 51, N-Cyclopentyl-3-{2-(cyclopentylamino)-6-[(dimethylamino)methyl]-4-pyrimidinyl}-2-(4-fluorophenyl)pyrazolo[1,5-α]pyridin-7-amine]	5 µM
CSc1cccc2c(-c3cc(NC4CCCC4)ncn3)c(-c3ccc(F)cc3)nn12 [Example 83, N-Cyclopentyl-6-[2-(4-fluorophenyl)-7-(methylthio)pyrazolo[1,5-α]pyridin-3-yl]pyrimidin-4-amine]	1.3 µM
CCCCNc1nccc(-c2c(-c3ccc(F)cc3)nn3c(NCCN4CCOCC4)cccc23)n1 [Example 47, 3-[2-(Butylamino)-4-pyrimidinyl]-2-(4-fluorophenyl)-N-[2-(4-morpholinyl)ethyl]pyrazolo[1,5-α]pyridin-7-amine]	0.4 µM
CCCCNc1cccc2c(-c3ccnc(NC4CCCC4)n3)c(-c3ccc(Br)cc3)nn12 [Example 10, 2-(4-Bromophenyl)-N-butyl-3-[2-(cyclopentylamino)-4-pyrimidinyl]pyrazolo[1,5-α]pyridin-7-amine]	5 µM
Fc1ccc(-c2nn3c(N4CCCC4)cccc3c2-c2ccnc(N3CCCC3)n2)cc1 [Example 69, 2-(4-Fluorophenyl)-7-pyrrolidin-1-yl-3-(2-pyrrolidin-1-ylpyrimidin-4-yl)pyrazolo[1,5-α]pyridine]	4.2 µM
NNc1cc(-c2c(-c3ccc(F)cc3)nn3c(NC4CCCC4)cccc23)ccn1 [Example 30, N-Cyclopentyl-2-(4-fluorophenyl)-3-(2-hydrazino-4-pyridinyl)pyrazolo[1,5-α]pyridin-7-amine]	5 µM
OCc1cc(-c2c(-c3ccc(F)cc3)nn3c(NC4CCCC4)cccc23)nc(NC2CCCC2)n1 [Example 22, {2-(Cyclopentylamino)-6-[7-(cyclopentylamino)-2-(4-fluorophenyl)pyrazolo[1,5-α]pyridin-3-yl]-4-pyrimidinyl}methanol]	5 µM
NCCNc1cccc2c(-c3cc(-c4ccccc4)nc(NC4CCCC4)n3)c(-c3ccc(F)cc3)nn12 [Example 20, N′-[3-[2-(Cyclopentylamino)-6-phenyl-4-pyrimidinyl]-2-(4-fluorophenyl)pyrazolo[1,5-α]pyridin-7-yl]-1,2-ethanediamine]	3 µM
Fc1ccc(-c2nn3c(NC4CCCC4)cccc3c2-c2ccnc(NC3CCCC3)n2)cc1 [Example 1, N-cyclopentyl-3-[2-(cyclopentylamino)-4-pyrimidinyl]-2-(4-fluorophenyl)pyrazolo[1,5-α]pyridin-7-amine]	0.3 µM
CNc1cccc2c(-c3ccncc3)c(-c3ccc(F)cc3)nn12 [Example 58, 2-(4-Fluorophenyl)-N-methyl-3-(4-pyridinyl)pyrazolo[1,5-α]pyridin-7-amine]	10.5 µM
CCCCNc1cccc2c(-c3ccnc(NCCCn4ccnc4)n3)c(-c3ccc(F)cc3)nn12 [Example 44, N-Butyl-2-(4-fluorophenyl)-3-(2-{[3-(1H-imidazol-1-yl)propyl]amino}-4-pyrimidinyl)pyrazolo[1,5-α]pyridin-7-amine]	4 µM
